From the supplement of paper PMC11061612

Assays:
[1] = compound: CC(=O)O[C@H]1C(=O)[C@@]2(C)[C@H]([C@H](OC(=O)c3ccccc3)[C@]3(O)C[C@H](OC(=O)[C@H](O)[C@@H](NC(=O)c4ccccc4)c4ccccc4)C(C)=C1C3(C)C)[C@]1(OC(C)=O)CO[C@@H]1C[C@@H]2O [Paclitaxel]; details: max 3 µM
Outline: (§1)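 Viability was measured with CellTiter-Glo 2.0 luminescence after 72 hours of dosing at a final DMSO of typically 0.2%, and scaled between blank-well and DMSO-well means. Beforehand, cancer cell lines sat 24 hours at 37°C and 5% CO2 in 1536-well plates in 7.5 μl DMEM/F12 or RPMI with 10% FBS. A non-linear mixed effects model fitted two-parameter logistic curves to the dose responses. The single-agent IC50 comes from these fits.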

[2] = compound: C[C@@H](Oc1cc(-c2cnn(C3CCNCC3)c2)cnc1N)c1c(Cl)ccc(F)c1Cl [Crizotinib]; details: max 10 µM
Outline: as §1

[3] = compound: CC(=O)c1c(C)c2cnc(Nc3ccc(N4CCNCC4)cn3)nc2n(C2CCCC2)c1=O [Palbociclib]; details: max 10 µM
Outline: as §1

[4] = compound: CC1=C(C(=CC=C1)Cl)NC(=O)C2=CN=C(S2)NC3=CC(=NC(=N3)C)N4CCN(CC4)CCO [Dasatinib]; details: max 2 µM
Outline: as §1

[5] = compound: Cn1cnc2c(F)c(Nc3ccc(Br)cc3Cl)c(C(=O)NOCCO)cc21 [Selumetinib]; details: max 10 µM
Outline: as §1

[6] = compound: CCN(CCO)CCCOc1ccc2c(Nc3cc(CC(=O)Nc4cccc(F)c4)[nH]n3)ncnc2c1 [AZD2811]; details: max 1 µM
Outline: as §1

[7] = compound: CN(C)CCCOc1ccc(-c2ccc3ncc4c(c3c2)n(C2CCOCC2)c(=O)n4C)cn1 [AZD0156]; details: max 3 µM
Outline: as §1

[8] = compound: COc1cccc(OCCCN)c1-c1cc(Nc2cnc(C#N)cn2)n[nH]1 [Prexasertib]; details: max 1 µM
Outline: as §1

[9] = compound: CN(CC[C@H](CSC1=CC=CC=C1)NC2=C(C=C(C=C2)S(=O)(=O)NC(=O)C3=CC=C(C=C3)N4CCC(CC4)[C@H](C5=CC=CC=C5C6=CC=C(C=C6)Cl)O)S(=O)(=O)C(F)(F)F)CCO [AZD4320]; details: max 1 µM
Outline: as §1

[10] = compound: C[C@@H](c1ccc2nccn2c1)n1nnc2ncc(-c3cnn(C)c3)nc21 [Savolitinib]; details: max 1 µM
Outline: as §1

[11] = compound: COc1cc([C@@H]2c3cc4c(cc3[C@@H](O[C@@H]3O[C@@H]5CO[C@@H](C)O[C@H]5[C@H](O)[C@H]3O)[C@H]3COC(=O)[C@H]23)OCO4)cc(OC)c1O [Etoposide]; details: max 10 µM
Outline: as §1

[12] = compound: COc1cc(Nc2ncc3c(n2)-c2ccc(Cl)cc2C(c2c(F)cccc2OC)=NC3)ccc1C(=O)O [Alisertib]; details: max 10 µM
Outline: as §1

[13] = compound: CC(=O)Nc1cccc(-n2c(=O)n(C3CC3)c(=O)c3c(Nc4ccc(I)cc4F)n(C)c(=O)c(C)c32)c1 [Trametinib]; details: max 1 µM
Outline: as §1

[14] = compound: C[C@@H]1COCCN1C2=NC(=NC(=C2)C3(CC3)[S@](=N)(=O)C)C4=C5C=CNC5=NC=C4 [AZD6738]; details: max 10 µM
Outline: as §1

[15] = compound: N#Cc1cnc(Nc2cc(NC[C@H]3CNCCO3)c(C(F)(F)F)cn2)cn1 [SRA737]; details: max 10 µM
Outline: as §1

[16] = compound: COc1cc2ncnc(Nc3ccc(F)c(Cl)c3)c2cc1OCCCN1CCOCC1 [Gefitinib]; details: max 10 µM
Outline: as §1

[17] = compound: CCc1c2c(nc3ccc(O)cc13)-c1cc3c(c(=O)n1C2)COC(=O)[C@]3(O)CC [SN-38]; details: max 0.3 µM
Outline: as §1

[18] = compound: Cc1c2c(nn1C)CSCc1cc(n(C)n1)CSc1cc(c3ccccc3c1)OCCCc1c(C(=O)O)n(C)c3c-2c(Cl)ccc13 [AZD5991]; details: max 1 µM
Outline: as §1

[19] = compound: CC1(C)CCC(CN2CCN(c3ccc(C(=O)NS(=O)(=O)c4ccc(NCC5CCOCC5)c([N+](=O)[O-])c4)c(Oc4cnc5[nH]ccc5c4)c3)CC2)=C(c2ccc(Cl)cc2)C1 [Venetoclax]; details: max 1 µM
Outline: as §1

[20] = compound: COc1nnc2ccc(N3CCC(c4ccc(OCCN5CCN(C)C(=O)[C@H]5C)cc4)CC3)nn12 [AZD5153]; details: max 1 µM
Outline: as §1

[21] = compound: CC1=CN2[C@@H](C1)C=NC3=CC(=C(C=C3C2=O)OC)OCCCCCOC4=C(C=C5C(=C4)N=C[C@@H]6CC(=CN6C5=O)C)OC [SG3199]; details: max 0.001 µM
Outline: as §1

[22] = compound: COc1cccc2c1C(=O)c1c(O)c3c(c(O)c1C2=O)C[C@@](O)(C(=O)CO)C[C@@H]3O[C@H]1C[C@H](N)[C@H](O)[C@H](C)O1 [Doxorubicin]; details: max 1 µM
Outline: as §1

[23] = compound: NC1(c2ccc(-c3nc4ccn5c(=O)[nH]nc5c4cc3-c3ccccc3)cc2)CCC1 [MK-2206]; details: max 10 µM
Outline: as §1

[24] = compound: CC(C)n1c(=O)n(C)c2cnc3cc(F)c(-c4ccc(OCCCN5CCCCC5)nc4)cc3c21 [AZD1390]; details: max 0.3 µM
Outline: as §1

[25] = compound: C[C@@H](Nc1cc(F)cc(F)c1)c1cc(C(=O)N(C)C)cc2c(=O)cc(N3CCOCC3)oc12 [AZD8186]; details: max 10 µM
Outline: as §1

[26] = compound: Cc1nc(-c2cn3c(n2)-c2ccc(-c4cnn(C(C)(C)C(N)=O)c4)cc2OCC3)n(C(C)C)n1 [Taselisib]; details: max 10 µM
Outline: as §1

[27] = compound: Nc1ccn([C@@H]2O[C@H](CO)[C@@H](O)C2(F)F)c(=O)n1 [Gemcitabine]; details: max 0.3 µM
Outline: as §1

[28] = compound: C1CC(C1)(C(=O)[O-])C(=O)[O-].N.N.[Pt+2] [Carboplatin]; details: max 10 µM
Outline: as §1

[29] = compound: O=c1[nH]cc(F)c(=O)[nH]1 [5-Fluorouracil]; details: max 20 µM
Outline: as §1

[30] = compound: Cc1cc2ncnn2cc1Nc1ncc2c(n1)n(C1CCOCC1)c(=O)n2C [AZD7648]; details: max 10 µM
Outline: as §1

[31] = compound: C=CCn1c(=O)c2cnc(Nc3ccc(N4CCN(C)CC4)cc3)nc2n1-c1cccc(C(C)(C)O)n1 [AZD1775]; details: max 3 µM
Outline: as §1

[32] = compound: O=C(Nc1ccc2[nH]nc(-c3ccncc3)c2c1)[C@@H]1CCN(CC(=O)N2CCN(c3ccc(-c4ncccn4)cc3)CC2)C1; details: max 5 µM
Outline: as §1

[33] = compound: O=C(c1cc(Cc2n[nH]c(=O)c3ccccc23)ccc1F)N1CCN(C(=O)C2CC2)CC1 [Olaparib]; details: max 10 µM
Outline: as §1

[34] = compound: C1CN(CCC1(C(=O)N[C@@H](CCO)C2=CC=C(C=C2)Cl)N)C3=NC=NC4=C3C=CN4 [AZD5363]; details: max 10 µM
Outline: as §1

[35] = compound: CS(=O)(=O)CCNCc1ccc(-c2ccc3ncnc(Nc4ccc(OCc5cccc(F)c5)c(Cl)c4)c3c2)o1 [Lapatinib]; details: max 10 µM
Outline: as §1

Row | Cell Line | IC50, cell viability 72 h [1] [nM] | IC50, cell viability 72 h [2] [nM] | IC50, cell viability 72 h [3] [nM] | IC50, cell viability 72 h [4] [nM] | IC50, cell viability 72 h [5] [nM] | IC50, cell viability 72 h [6] [nM] | IC50, cell viability 72 h [7] [nM] | IC50, cell viability 72 h [8] [nM] | IC50, cell viability 72 h [9] [nM] | IC50, cell viability 72 h [10] [nM] | IC50, cell viability 72 h [11] [nM] | IC50, cell viability 72 h [12] [nM] | IC50, cell viability 72 h [13] [nM] | IC50, cell viability 72 h [14] [nM] | IC50, cell viability 72 h [15] [nM] | IC50, cell viability 72 h [16] [nM] | IC50, cell viability 72 h [17] [nM] | IC50, cell viability 72 h [18] [nM] | IC50, cell viability 72 h [19] [nM] | IC50, cell viability 72 h [20] [nM] | IC50, cell viability 72 h [21] [nM] | IC50, cell viability 72 h [22] [nM] | IC50, cell viability 72 h [23] [nM] | IC50, cell viability 72 h [24] [nM] | IC50, cell viability 72 h [25] [nM] | IC50, cell viability 72 h [26] [nM] | IC50, cell viability 72 h [27] [nM] | IC50, cell viability 72 h [28] [nM] | IC50, cell viability 72 h [29] [nM] | IC50, cell viability 72 h [30] [nM] | IC50, cell viability 72 h [31] [nM] | IC50, cell viability 72 h [32] [nM] | IC50, cell viability 72 h [33] [nM] | IC50, cell viability 72 h [34] [nM] | IC50, cell viability 72 h [35] [nM]
1 | SN12C (Kidney Carcinoma) | > 3000 | > 10000 | > 10000 | > 2000 | > 10000 | > 1000 | > 3000 | > 1000 | > 1000 | > 1000 | > 10000 | > 10000 | > 1000 | > 10000 | > 10000 | > 10000 | 290 | > 1000 | > 1000 | > 1000 | > 1 | > 1000 | > 10000 | > 300 | > 10000 | > 10000 | > 300 | > 10000 | > 20000 | > 10000 | > 3000 | > 5000 | > 10000 | > 10000 | > 10000
2 | KATOIII (Gastric Carcinoma) | > 3000 | > 10000 | > 10000 | > 2000 | > 10000 | > 1000 | > 3000 | 420 | > 1000 | > 1000 | > 10000 | 1790 | 893 | > 10000 | > 10000 | > 10000 | > 300 | > 1000 | > 1000 | > 1000 | > 1 | > 1000 | > 10000 | > 300 | > 10000 | > 10000 | > 300 | > 10000 | 14300 | > 10000 | > 3000 | 4460 | > 10000 | > 10000 | > 10000
3 | TE-5 (Esophageal Squamous Cell Carcinoma) | 79.8 | > 10000 | > 10000 | > 2000 | > 10000 | > 1000 | > 3000 | 884 | > 1000 | > 1000 | > 10000 | > 10000 | > 1000 | > 10000 | > 10000 | > 10000 | 55.8 | > 1000 | > 1000 | > 1000 | > 1 | > 1000 | > 10000 | > 300 | > 10000 | 2040 | 71.4 | > 10000 | > 20000 | > 10000 | > 3000 | > 5000 | > 10000 | > 10000 | > 10000
4 | OCI-AML2 (Acute Myeloid Leukemia) | 4.45 | 2780 | 3170 | > 2000 | 36.6 | 341 | > 3000 | 12.4 | 6.33 | > 1000 | 503 | 1340 | < 1 | 965 | 1170 | > 10000 | 4.7 | 193 | 7.92 | 43 | > 1 | 12.3 | > 10000 | > 300 | > 10000 | > 10000 | 7.97 | > 10000 | 1200 | > 10000 | 358 | 51.5 | 6690 | 7580 | > 10000
5 | G-292-Clone-A141B1 (Osteosarcoma) | > 3000 | > 10000 | > 10000 | > 2000 | > 10000 | > 1000 | > 3000 | > 1000 | > 1000 | > 1000 | > 10000 | > 10000 | > 1000 | > 10000 | > 10000 | > 10000 | > 300 | > 1000 | > 1000 | > 1000 | > 1 | > 1000 | > 10000 | > 300 | > 10000 | 1160 | > 300 | > 10000 | > 20000 | > 10000 | > 3000 | > 5000 | > 10000 | > 10000 | > 10000
